Experimental data from US11116848B2, “Selective UV crosslinking of peptides and functional moieties to immunoglobulins” (University of Notre Dame du Lac, priority 2013, dated 2021).

Assays:
[1] = biological target: nucleotide binding site (NBS); details: read-out: previously reported Kd for IBA/NBS interactions; cited from earlier work
[2] = test system: CD20 negative myeloma cell lines, U266, H929, and MM.1S; assay: CD20 antigen detection flow cytometry assay; format: cell-based; details: conjugate 200 nM, photocrosslinked at 1 J/cm^2; U266, H929, MM.1S
Experimental: IM9, U266, H929, and MM.1S cell lines were cultured in RPMI 1640 media containing 10% FBS, 2 mM L-glutamine, 100 U/mL penicillin, and 100 μg/mL streptomycin. […] IBA-FITC was photocrosslinked to Rituximab at the indicated UV energies. All cell lines were used at a density of 0.5×10^6 cells/mL in blocking buffer (1.5% BSA in PBS pH 7.4) and initially incubated for 30 min on ice. […] Samples were washed three times and analyzed on a Guava easyCyte 8HT flow cytometer.

O=C(O)CCCc1c[nH]c2ccccc12 [IBA, indole-3-butyric acid]
Kd [1]: 1 to 8 µM

Rituximab-IBA-FITC conjugate
binding to CD20 negative cell lines [2]: negligible binding
